# Source: patent publication US20230210802A1, “COMPOSITION FOR RELIEVING HANGOVER AND IMPROVING LIVER FUNCTION” (Zefit Inc., priority 2022, published 2023)
# System: zebrafish model showing an anesthetic effect by acute alcohol treatment
# Experiment: Movement distance of zebrafish model with acute alcohol treatment (total distance, video tracking 20 minutes)
# Assay type: in vivo
# Conditions: zebrafish larvae 7 dpf, ETOH 2%, omega-3 1.4 mg/L, B2 0.2 mg/L, B3 0.5 mg/L, values converted from FIG. 4
# Description: First, each of omega-3 fatty acid (1.4 mg/L), riboflavin (vitamin B2) (0.2 mg/L), and nicotinamide (vitamin B3) (0.5 mg/L) was dissolved in E3 media to prepare a pre-treatment solution. A mixture of omega-3 fatty acid (1.4 mg/L), riboflavin (vitamin B2) (0.2 mg/L), and nicotinamide (vitamin B3) (0.5 mg/L) was dissolved in E3 media to prepare a pre-treatment solution. Each of omega-3 fatty acid (1.4 mg/L), riboflavin (vitamin B2) (0.2 mg/L), and nicotinamide (vitamin B3) (0.5 mg/L) was dissolved in ETOH 2% (in E3 media) to prepare a post-treatment solution. A mixture of omega-3 fatty acid (1.4 mg/L), riboflavin (vitamin B2) (0.2 mg/L), and nicotinamide (vitamin B3) (0.5 mg/L) was dissolved in ETOH 2% (in E3 media) to prepare a post-treatment solution. Zebrafish larvae at 7 days post-fertilization (dpf) were exposed in water to 200 μl/well of the pre-treatment solution for each group (n=20/group) in a 96-well plate for 1 hour. 1 zebrafish larva was in each well. After 1 hour of pre-treatment, the pre-treatment solution was replaced with 200 μl/well of the post-treatment solution for each group, followed by exposure in water. Subsequently, the behaviors of the zebrafish larvae were recorded for 20 minutes. After recording, the cumulative distances for each section (0-5 min, 5-10 min, 10-15 min, and 15-20 min) of the normal control and the experimental groups were analyzed, and the results thereof are shown in FIGS. 1 and 2. […]
# Particularly, the behaviors of zebrafish larvae were recorded for 20 minutes, and after recording, the total distance for an experiment time of 20 minutes of each of the normal control and the experimental groups was analyzed, and the results thereof are shown in FIG. 4. […]
row,Compound,Average value of total movement distance
1,"NC(=O)c1cccnc1 [ETOH + B3, nicotinamide]",77.39 mm
2,omega-3 fatty acid [ETOH + Omega-3 fatty acid],399.3 mm
3,riboflavin [ETOH + B2],223.97 mm
